Measured values: US20170273961A1, “NOVEL IMINONITRILE DERIVATIVES” (CURADEV PHARMA, PVT. LTD., priority 2014, published 2017)

target: T1, IDO1 (Mus musculus, UniProt P28776); test: Reduction of LPS induced plasma kynurenine levels in C57BL/6 mice; assay type: in vivo; conditions: LPS-injected (6 mg/kg i.p.) C57BL/6 mice; test compound given orally 20 h after LPS; plasma KYN by LC/MS/MS at 2 hr post dosing
T1 construct: LPS-injected mice have been used as models to study IDO1 expression and activity; from tissue; host or cells: whole animal: LPS-injected C57BL/6 mice, with IDO1 induced in a variety of tissues
From the text: Inflammatory mediators such as Lipopolysaccharides (LPS) and Interferon-gamma (IFNg) are well-established inducers of IDO1 expression. Intraperitoneal (i.p.) administration of bacterial lipopolysaccharide (LPS) induces peak IDO1 activity in a variety of tissues within one day after LPS administration resulting in the production and release of kynurenine into the bloodstream (Takikawa, O., et al. (1986) J. Biol. Chem. 261:3648-53; Yoshida, H., et al. (1998) Cell 94:739-750). LPS-injected mice have been used as models to study IDO1 expression and activity. Three—eight fed C57 BL/6 mice (age 7-8 weeks, weight: about 20-22 g) were injected intrapritoneally with bacterial lipopolysaccharide (LPS; 26:B6 Sigma) at a concentration of 6 mg/kg. Animals were then housed in normal condition for 20 hours at which time the test compounds were administered orally in formulation containing 30% polyethylene glycol 400 (PEG 400) and 20% propylene glycol (PG) in normal saline (Dosing volume 10 mL/kg). Blood was drawn through retro-orbital bleeds into a tube containing 100 mM EDTA for plasma collection at the following times: just prior to LPS treatment, just prior to test compound dosing (0 hr) and then at 2 hr, 4 hr, 6 hr, 8 hr, 24 hr and 48 hr post-test compound dosing. Plasma KYN and drug levels were determined by LC/MS/MS using an API4000 mass spectrometer (Applied Biosystems) coupled to a Shimadzu Prominence LC system fitted with a C18 column.
The compounds of the invention decrease kynurenine levels. The compounds of the invention trigger a decrease of kynurenine levels at 2 hrs of at least 5%.

T1 sequence (P28776 whole entry): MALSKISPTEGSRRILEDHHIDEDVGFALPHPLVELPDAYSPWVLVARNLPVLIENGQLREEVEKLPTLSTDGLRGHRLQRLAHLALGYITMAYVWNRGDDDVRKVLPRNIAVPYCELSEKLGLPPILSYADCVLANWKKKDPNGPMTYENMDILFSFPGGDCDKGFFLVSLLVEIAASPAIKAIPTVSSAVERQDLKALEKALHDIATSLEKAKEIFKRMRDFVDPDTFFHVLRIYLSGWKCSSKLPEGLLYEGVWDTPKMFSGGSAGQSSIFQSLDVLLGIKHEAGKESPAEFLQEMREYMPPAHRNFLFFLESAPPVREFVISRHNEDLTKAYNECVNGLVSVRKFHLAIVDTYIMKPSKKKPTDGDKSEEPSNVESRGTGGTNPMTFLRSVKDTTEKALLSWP

| Structure (SMILES) | percentage of decrease of kynurenine level at two hours |
| --- | --- |
| N#C/C(=N\c1ccccc1Cl)c1ccnc(-c2ccncc2)c1O [Compound 20] | 46% |
| N#C/C(=N\c1cccc(Cl)c1)c1ccnc(-c2ccncc2)c1O [Compound 22, N-(3-Chlorophenyl)-3-hydroxy-[2,4′-bipyridine]-4-carbimidoyl nitrile] | 87% |
| Cc1cc(-c2nccc(/C(C#N)=N/c3ccccc3)c2O)ccn1 [Compound 24, 3-Hydroxy-2′-methyl-N-phenyl-[2,4′-bipyridine]-4-carbimidoyl nitrile] | 81% |
| Cc1cc(-c2nccc(/C(C#N)=N/c3ccccc3Cl)c2O)ccn1 [Compound 25, N-(2-Chlorophenyl)-3-hydroxy-2′-methyl-[2,4′-bipyridine]-4-carbimidoyl nitrile] | 37% |
| N#C/C(=N\c1cccc(C(F)(F)F)c1)c1ccnc(-c2ccncc2)c1O [Compound 28, 3-Hydroxy-N-(3-(trifluoromethyl)phenyl)-[2,4′-bipyridine]-4-carbimidoyl nitrile] | 70% |
| Cc1cc(-c2nccc(/C(C#N)=N/c3cccc(F)c3)c2O)ccn1 [Compound 29, N-(3-Fluorophenyl)-3-hydroxy-2′-methyl-[2,4′-bipyridine]-4-carbimidoyl nitrile] | 75% |
| CNC(=O)c1cc(-c2nccc(/C(C#N)=N/c3cccc(Cl)c3)c2O)ccn1 [Compound 30, N-(3-Chlorophenyl)-3-hydroxy-2′-(methylcarbamoyl)-[2,4′-bipyridine]-4-carbimidoyl nitrile] | 64% |
| CNC(=O)c1cc(-c2nccc(/C(C#N)=N/c3ccc(F)c(C(F)(F)F)c3)c2O)ccn1 [Compound 31, N-(4-Fluoro-3-(trifluoromethyl)phenyl)-3-hydroxy-2′-(methylcarbamoyl)-[2,4′-bipyridine]-4-carbimidoyl nitrile] | 43% |
| CNC(=O)c1cc(-c2nccc(/C(C#N)=N/c3ccc(F)cc3)c2O)ccn1 [Compound 32, N-(4-Fluorophenyl)-3-hydroxy-2′-(methylcarbamoyl)-[2,4′-bipyridine]-4-carbimidoyl nitrile] | 67% |
| N#C/C(=N\c1cccc(Cl)c1)c1ccncc1O [Compound 33, N-(3-Chlorophenyl)-3-hydroxyisonicotinimidoyl nitrile] | 80% |
| N#C/C(=N\c1cccc(C(F)(F)F)c1)c1ccncc1O [Compound 34, 3-Hydroxy-N-(3-(trifluoromethyl)phenyl)isonicotinimidoyl nitrile] | 67% |
| N#C/C(=N\c1cccc(F)c1)c1ccncc1O [Compound 35, N-(3-Fluorophenyl)-3-hydroxyisonIcotinimidoyl nitrile] | 74% |
| N#C/C(=N\c1ccc(F)c(F)c1)c1ccncc1O [Compound 36, N-(3,4-Difluorophenyl)-3-hydroxyisonicotinimidoyl nitrile] | 79% |
| Cc1cc(-c2nccc(/C(C#N)=N/c3cccc(C(F)(F)F)c3)c2O)ccn1 [Compound 38, 3-Hydroxy-2′-methyl-N-(3-(trifluoromethyl)phenyl)-[2,4′-bipyridine]-4-carbimidoyl nitrile] | 69% |
| N#C/C(=N\c1cccc(F)c1)c1ccnc(-c2ccncc2)c1O [Compound 41, N-(3-Fluorophenyl)-3-hydroxy-[2,4′-bipyridine]-4-carbimidoyl nitrile] | 81% |
| N#C/C(=N\c1cccc(C(F)(F)F)c1)c1ccnc(-c2ccccc2)c1O [Compound 42, 3-Hydroxy-2-phenyl-N-(3-(trifluoromethyl)phenyl)isonicotinimidoyl nitrile] | 32% |

Continued, values first:

| percentage of decrease of kynurenine level at two hours | Structure (SMILES) |
| --- | --- |
| 10% | N#C/C(=N\c1ccc(F)c(Cl)c1)c1ccnc(-c2ccc3c(c2)OCO3)c1O [Compound 17, 2-(Benzo[d][1,3]dioxol-5-yl)-N-(3-chloro-4-fluorophenyl)-3-hydroxyisonicotinimidoyl nitrile] |
| 53% | Cc1nccc(/C(C#N)=N/c2ccc(F)c(Cl)c2)c1O [Compound 18, N-(3-Chloro-4-fluorophenyl)-3-hydroxy-2-methylisonicotinimidoyl nitrile] |
| 38% | N#C/C(=N\c1ccc(F)c(Cl)c1)c1ccnc(Br)c1O [Compound 19, 2-Bromo-N-(3-chloro-4-fluorophenyl)-3-hydroxyIsonicotinimidoyl nitrile] |
| 21% | N#C/C(=N\c1ccc(F)c(Cl)c1)c1ccnc(-c2cc(F)nc(F)c2)c1O [Compound 21, N-(3-Chloro-4-fluorophenyl)-2′,6′-difluoro-3-hydroxy-[2,4′-bipyridine]-4-carbimidoyl nitrile] |
| 79% | Cc1cc(-c2nccc(/C(C#N)=N/c3cccc(Cl)c3)c2O)ccn1 [Compound 23, N-(3-Chlorophenyl)-3-hydroxy-2′-methyl-[2,4′-bipyridine]-4-carbimidoyl nitrile] |
| 11% | Cc1cc(-c2nc(C)cc(/C(C#N)=N/c3ccc(F)c(Cl)c3)c2O)ccn1 [Compound 26, N-(3-Chloro-4-fluorophenyl)-3-hydroxy-2′,6-dimethyl-[2,4′-bipyridine]-4-carbimidoyl nitrile] |
| 64% | Cc1cc(-c2nccc(/C(C#N)=N/c3ccc(F)cc3F)c2O)ccn1 [Compound 27, N-(2,4-Difluorophenyl)-3-hydroxy-2′-methyl-[2,4′-bipyridine]-4-carbimidoyl nitrile] |
| 68% | CNC(=O)c1cc(-c2nccc(/C(C#N)=N/c3ccc(F)c(F)c3)c2O)ccn1 [Compound 37, N-(3,4-Difluorophenyl)-3-hydroxy-2′-(methylcarbamoyl)-[2,4′-bipyridine]-4-carbimidoyl nitrile] |
| 67% | Cc1cc(-c2nccc(/C(C#N)=N/c3ccc(F)c(C(F)(F)F)c3)c2O)ccn1 [Compound 39, N-(4-Fluoro-3-(trifluoromethyl)phenyl)-3-hydroxy-2′-methyl-[2,4′-bipyridine]-4-carbimidoyl nitrile] |
| 77% | N#C/C(=N\c1ccc(F)c(C(F)(F)F)c1)c1ccnc(-c2ccncc2)c1O [Compound 40, N-(4-Fluoro-3-(trifluoromethyl)phenyl)-3-hydroxy-[2,4′-bipyridine]-4-carbimidoyl nitrile] |
| 69% | N#C/C(=N\c1ccc(F)cc1)c1ccnc(-c2ccnc(F)c2)c1O [Compound 43, 2′-Fluoro-N-(4-fluorophenyl)-3-hydroxy-[2,4′-bipyridine]-4-carbimidoyl nitrile] |
| 77% | N#C/C(=N\c1ccc(F)c(Cl)c1)c1ccnc(-c2cccnc2)c1O [Compound 44, N-(3-Chloro-4-fluorophenyl)-3-hydroxy-[2,3′-bipyridine]-4-carbimidoyl nitrile] |
